Measured values: patent US7307063B2, “Melanocortin metallopeptides for treatment of sexual dysfunction” (Palatin Technologies, Inc., priority 2001, dated 2007)
Non-standard residues stand in square brackets, D forms with d. Nle = CCCC[C@H](N)C(=O)O

Tests used:
hMC2-R = target: T1, hMC2-R (Homo sapiens, UniProt P41968); assay: Competitive binding assay of additional compounds, Table 6 hMC2-R; conditions: 1 μM, mean of triplicate
T1 construct: expressed in transfected cells; host or cells: HEK-293
T1 sequence (P41968 whole entry): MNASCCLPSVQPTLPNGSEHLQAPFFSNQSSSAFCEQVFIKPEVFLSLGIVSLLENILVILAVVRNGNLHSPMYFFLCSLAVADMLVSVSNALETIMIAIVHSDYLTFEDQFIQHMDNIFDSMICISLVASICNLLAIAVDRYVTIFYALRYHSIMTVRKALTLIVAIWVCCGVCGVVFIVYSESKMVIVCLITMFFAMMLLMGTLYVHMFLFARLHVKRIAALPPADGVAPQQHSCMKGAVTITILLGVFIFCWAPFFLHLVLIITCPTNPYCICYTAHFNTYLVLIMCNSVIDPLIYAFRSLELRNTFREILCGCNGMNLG

MC1-R [1] = target: T2, MC1-R (Mus musculus, UniProt Q01727); assay: Competitive binding assay: inhibition of 125I-NDP-α-MSH binding to membranes from B16-F10 mouse melanoma cells
T2 construct: MC1-R membranes were isolated from B16—F10 mouse melanoma cells; endogenous in cells; host or cells: B16-F10 mouse melanoma cells
T2 sequence (Q01727 whole entry): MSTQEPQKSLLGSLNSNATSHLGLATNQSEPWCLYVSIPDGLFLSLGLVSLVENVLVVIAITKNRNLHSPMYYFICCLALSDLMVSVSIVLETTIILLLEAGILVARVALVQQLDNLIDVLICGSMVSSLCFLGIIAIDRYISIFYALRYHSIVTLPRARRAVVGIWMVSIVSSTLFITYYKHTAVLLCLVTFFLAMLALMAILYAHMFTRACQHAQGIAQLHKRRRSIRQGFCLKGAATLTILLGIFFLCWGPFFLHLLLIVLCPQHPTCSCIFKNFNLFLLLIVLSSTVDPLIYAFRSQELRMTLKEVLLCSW
Outline: (§1)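 Membranes were incubated with 125I-NDP-α-MSH and a chosen concentration of Re-complexed peptide. Bound radioactivity was then measured, with 1 μM α-MSH defining complete inhibition. Finally, cpm were normalized against specific binding to yield percent inhibition.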

MC4-R [2] = target: T3, MC4-R (Homo sapiens, UniProt P32245); assay: Functional activity assay: intracellular cAMP in HEK-293 cells expressing MC4-R; format: cell-based; conditions: Re-complexed peptide
T3 construct: expressed in transfected cells; host or cells: HEK-293
T3 sequence (P32245 whole entry): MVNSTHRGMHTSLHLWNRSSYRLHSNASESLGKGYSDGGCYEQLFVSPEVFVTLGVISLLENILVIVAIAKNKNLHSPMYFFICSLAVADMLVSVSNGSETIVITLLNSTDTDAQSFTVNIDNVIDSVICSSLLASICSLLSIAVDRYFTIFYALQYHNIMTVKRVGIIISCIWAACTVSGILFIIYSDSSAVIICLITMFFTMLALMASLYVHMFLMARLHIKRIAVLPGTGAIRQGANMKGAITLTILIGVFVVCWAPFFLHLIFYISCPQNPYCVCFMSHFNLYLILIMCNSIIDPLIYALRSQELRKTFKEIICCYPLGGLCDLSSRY
Method: (§2) Rhenium-complexed metallopeptides were prepared, with functional evaluation of peptides at MC1-R and MC4-R performed by measuring the accumulation of intracellular cAMP in HEK-293 cells expressing MC4-R or B16-F10 mouse melanoma cells expressing MC1-R. Antagonistic activity was determined by measuring the inhibition of α-MSH-induced cAMP levels following exposure to peptide. Cells, suspended in Earle's Balanced Salt Solution containing 10 mM HEPES, pH 7.5, 5 mM MgCl2, 1 mM glutamine, 0.1% albumin and 0.6 mM 3-isobutyl-1-methyl-xanthine, a phosphodiesterase inhibitor, were plated in 96 well plates at a density of 0.5×10^5 cells per well. Cells were incubated with the test peptides in the presence or absence of α-MSH for 1 hour at 37° C. cAMP levels were measured by EIA (Amersham) in the cell lysates. Data analysis and EC50 values were determined using nonlinear regression analysis with Prism Graph-Pad software.

MC4-R [3] = target: T3, MC4-R; assay: Competitive binding assay: inhibition of 125I-NDP-α-MSH binding to HEK-293 membranes with cloned human receptor subtype 4
Outline: as §1

hMC5-R = target: T4, hMC5-R (Homo sapiens, UniProt P33032); assay: Competitive binding assay: inhibition of 125I-NDP-α-MSH binding to HEK-293 membranes with cloned human receptor subtype 5
T4 construct: expressed in transfected cells; host or cells: HEK-293
T4 sequence (P33032 whole entry): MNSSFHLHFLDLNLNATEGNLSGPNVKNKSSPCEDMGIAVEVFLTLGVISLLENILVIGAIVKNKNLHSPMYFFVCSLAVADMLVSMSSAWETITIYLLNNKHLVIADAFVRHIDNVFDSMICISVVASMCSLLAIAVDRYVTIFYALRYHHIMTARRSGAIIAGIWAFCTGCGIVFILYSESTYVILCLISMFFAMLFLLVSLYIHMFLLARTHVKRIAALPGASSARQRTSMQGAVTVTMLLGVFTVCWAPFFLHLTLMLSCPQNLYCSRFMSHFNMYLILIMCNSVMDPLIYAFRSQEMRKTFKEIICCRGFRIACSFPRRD
Outline: as §1

Male Sprague-Dawley rats [4] = assay: Penile erection behavior dose response animal studies; format: in vivo, rat
Method: For behavioral experiments test solutions of rhenium-complexed metallopeptides were freshly prepared in DMSO and diluted in saline. Male Sprague-Dawley rats (Taconic) weighing 200-250 g were kept on a 12 hour on/off light cycle with food and water ad libitum. All behavioral studies were performed between 10 a.m. and 5 p.m. Groups of 3-10 rats were treated with the rhenium-complexed metallopeptides at a variety of doses via intravenous (IV) injection. In a second experimental paradigm, rats were treated a selected compound intranasally (IN) using a micropipet to deliver 25 μl of solution into one nostril. Immediately after treatment, rats were placed into individual Lucite cages (27 cm long, 16 cm wide and 25 cm high) for behavioral observation.

MC1-R [5] = target: T2, MC1-R; assay: Functional activity assay: intracellular cAMP in B16-F10 mouse melanoma cells expressing MC1-R; format: cell-based; conditions: Re-complexed peptide
Method: as §2

hMC3-R = target: T5, hMC3-R (Homo sapiens, UniProt P41968); assay: Competitive binding assay: inhibition of 125I-NDP-α-MSH binding to HEK-293 membranes with cloned human receptor subtype 3; conditions: Table 1
T5 construct: expressed in transfected cells; host or cells: HEK-293
T5 sequence (P41968 whole entry): as the sequence (P41968 whole entry) above
Method: Rhenium-complexed metallopeptides of the formulas given in Table 1 were prepared, with the metallopeptides complexed with rhenium using the rhenium transfer agent ReOCl3(PPh3)2 in the presence of 1,8-Diazabicyclo[5,4,0] undec-7-ene as a base, as disclosed in International Application PCT/US00/16396, filed Jun. 14, 2000, Melanocortin Metallopeptide Constructs, Combinatorial Libraries and Applications, incorporated by reference herein. Affinities of compounds were measured using membranes from HEK-293 cells containing cloned human melanocortin receptor subtypes 3, 4 and 5. MC1-R membranes were isolated from B16—F10 mouse melanoma cells. The assay tube also contained a chosen concentration of the test peptide of this invention, complexed to a rhenium metal ion as indicated, for determining its efficacy in inhibiting the binding of ^125I-NDP-α-MSH to its receptor. Non-specific binding was measured by complete inhibition of binding of ^125I-NDP-α-MSH in the assay with the presence of 1 μM α-MSH. 100% specific binding was defined as the difference in radioactivity (cpm) bound to cell membranes in the absence and presence of 1 μM α-MSH. The cpm obtained in presence of test compounds were normalized with respect to 100% specific binding to determine the percent inhibition of ^125I-NDP-α-MSH binding.

Male Sprague-Dawley rats [6] = assay: Combination penile erection behavior studies: antagonist IV before IN agonist; format: in vivo, rat;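 for Mean Penile Erections/Rat: Erections counted over 30 min observation after IN dosing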;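 for Percent with Penile Erections: Erections counted over 30 min observation after IN dosing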
Method: Conditions were as in Example 3 except as noted. Groups of 5-6 rats received an IV dose of either placebo or antagonist 5 minutes prior to an IN dose of either placebo or agonist. Two antagonists were used: ReO[Heptanoyl-Ser(Bzl)-D-Nal 2′-Arg-Trp-Cys-NH2] and SHU9119 (Hruby V J, Lu D, Sharma S D, et al. J Med Chem 38:3454-3461 (1995)), Ac-Nle-cyclo(-Asp-His-D-Nal 2′-Arg-Trp-Lys)-NH2. The agonist used was Ac-Nle-cyclo(-Asp-His-D-Phe-Arg-Trp-Lys)-OH. Immediately after IN treatment, rats were placed into individual Lucite cages for observation. […] In combination studies, the antagonist was dosed IV 5 minutes prior to a 50 μg/kg IN dose of Ac-Nle-cyclo(-Asp-His-D-Phe-Arg-Trp-Lys)-OH.
These studies were conducted as described above in Example 4 with metallopeptide antagonists administered IV five minutes before IN administration of 50 μg/kg Ac-Nle-cyclo(-Asp-His-D-Phe-Arg-Trp-Lys)-OH. […] The potency of these antagonists also correlated with their relative binding affinities in the in vitro binding assays.

[7] = Table 1, 1 μM Re-complexed peptide
[8] = Table 6, 1 μM, mean of triplicate
[9] = IV 50 μg/kg, 30 min observation
[10] = Table 1, 10 μM Re-complexed peptide
[11] = IV 10 μg/kg, 30 min observation
[12] = combination: antagonist 5 μg/kg IV 5 min prior to 50 μg/kg IN Ac-Nle-cyclo(-Asp-His-D-Phe-Arg-Trp-Lys)-OH

3′-Br Phenyl acetyl-Arg-Arg-D-Phe(4′-Cl)-Cys-Trp-NH2
% Inhibition of Binding hMC2-R (hMC2-R): 48%
% Inhibition of Binding MC1-R (MC1-R [1]; [7]): 97%
% Inhibition of Binding MC1-R (MC1-R [1]; [8]): 91%
Functional activity at MC4-R (cAMP accumulation; inhibition of α-MSH-induced cAMP) (MC4-R [2]): MC4-R agonists
% Inhibition of Binding hMC4-R (MC4-R [3]; [7]): 100%
% Inhibition of Binding hMC4-R (MC4-R [3]; [8]): 92%
% Inhibition of Binding hMC5-R (hMC5-R; [8]): 89%
Mean Penile Erections/Rat (Male Sprague-Dawley rats [4]; [9]): 0.5

Ac-Nle-Ala-His-D-Phe(3′-Cl)-Arg-Trp-Cys-Trp-NH2
% Inhibition of Binding MC1-R (MC1-R [1]; [7]): 101%
Functional activity at MC4-R (cAMP accumulation; inhibition of α-MSH-induced cAMP) (MC4-R [2]): MC4-R agonists
% Inhibition of Binding hMC4-R (MC4-R [3]; [7]): 100%
Mean Penile Erections/Rat (Male Sprague-Dawley rats [4]; [9]): 0.5

Ac-Nle-Ala-His-D-Phe-Arg-Cys-Trp-NH2 ({Ac-Nle-Ala-H2N}-[dF]RCW-NH2; also: ReO complex)
% Inhibition of Binding MC1-R (MC1-R [1]; [10]): 97%
Functional activity at MC1-R (cAMP accumulation) (MC1-R [5]): MC1-R specific agonist
% Inhibition of Binding hMC4-R (MC4-R [3]; [10]): 29%
% Inhibition of Binding hMC5-R (hMC5-R; [10]): 22%
Mean Penile Erections/Rat (Male Sprague-Dawley rats [4]; [11]): 0
Mean Penile Erections/Rat (Male Sprague-Dawley rats [4]; [9]): 0
Induction of penile erections (PEs) in rat model, in words (Male Sprague-Dawley rats [4]; rats, IV): inactive in inducing PEs
% Inhibition of Binding hMC3-R (hMC3-R; 10 μM Re-complexed peptide): 14%

Ac-Nle-Ala-His-D-Phe-Arg-Trp-Cys-NH2 ({Ac-Nle-Ala-H2N}-[dF]RWC-NH2; also: ReO complex)
% Inhibition of Binding MC1-R (MC1-R [1]; [7]): 91%
Functional activity at MC4-R (cAMP accumulation; inhibition of α-MSH-induced cAMP) (MC4-R [2]): MC4-R agonists
% Inhibition of Binding hMC4-R (MC4-R [3]; [7]): 89%
% Inhibition of Binding hMC5-R (hMC5-R; [7]): 93%
% with Penile Erections (Male Sprague-Dawley rats [4]; IN 10 μg/kg, 10 rats): 70%
Mean Penile Erections/Rat (Male Sprague-Dawley rats [4]; IN 10 μg/kg, 10 rats): 0.9 ± 0.2
Mean Penile Erections/Rat (Male Sprague-Dawley rats [4]; [11]): 0.25
Mean Penile Erections/Rat (Male Sprague-Dawley rats [4]; IV 30 μg/kg, 30 min observation): 0.75
Mean Penile Erections/Rat (Male Sprague-Dawley rats [4]; [9]): 1.0
% Inhibition of Binding hMC3-R (hMC3-R; 1 μM Re-complexed peptide): 70%

Ac-Nle-cyclo(-Asp-His-D-Nal 2′-Arg-Trp-Lys)-NH2
Mean Penile Erections/Rat (Male Sprague-Dawley rats [6]; antagonist alone, 5 μg/kg IV): 0
Percent with Penile Erections (Male Sprague-Dawley rats [6]; antagonist alone, 5 μg/kg IV): 0%
Mean Penile Erections/Rat (Male Sprague-Dawley rats [6]; [12]): 0
Percent with Penile Erections (Male Sprague-Dawley rats [6]; [12]): 0%
Effect on erectile behavior induced by Ac-Nle-cyclo(-Asp-His-D-Phe-Arg-Trp-Lys)-OH, in words (Male Sprague-Dawley rats [6]; rats, antagonist IV before IN agonist): blocked
